Values of other authors, collected in patent US20080095865A1, “COMPOSITION AND METHOD FOR INCREASING LEAN MUSCLE MASS, DECREASING MUSCLE LOSS, INCREASING MUSCLE STRENGTH AND IMPROVING ATHLETIC PERFORMANCE” (APLODAN FORMULATIONS LTD., priority 2004, published 2008).

Key:
[1] = supplemented rats
[2] = hamster, in vivo
[3] = patients with inadequate coronary blood flow
[4] = elderly subjects, compared to controls
[5] = as a supplement
[6] = unaffected in placebo group

Row | Compound | increase of metabolic clearance rate of glucose (diabetics) | body's utilization of blood sugar (type II diabetics) | age-related changes in mitochondrial function, accumulated oxidative damage and metabolic rate [1] | high-density lipoproteins [2] | cardiac parameters [3] | muscular performance [4] | tolerance and side effects [5] | hand-grip strength [6]
1 | O=C(O)CCCC[C@@H]1CCSS1 (stereo in doubt) [Alpha Lipoic Acid, 1,2-dithiolane-3-pentanoic acid] | 50% | significantly increase | improved | beneficial increase in high-density lipoproteins |  |  |  | 
2 | CN(CCOP(=O)(O)O)C(=N)N [Creatinol O-Phosphate] |  |  |  |  | successfully used to improve cardiac parameters | improved muscular performance as compared to controls | well tolerated and without side effects | improved
